Results published in ChEMBL document CHEMBL5154681, “Small Amphiphilic Peptides: Activity Against a Broad Range of Drug-Resistant Bacteria and Structural Insight into Membranolytic Properties” (J Med Chem, 2022).
≈ marks a conversion by molar mass, not a printed value. Square brackets hold non-standard residues; d marks the D form. Peptide text beside a SMILES is read from it. Bip = N[C@@H](Cc1ccc(-c2ccccc2)cc1)C(=O)O; Dip = N[C@H](C(=O)O)C(c1ccccc1)c1ccccc1; 2Nal = N[C@@H](Cc1ccc2ccccc2c1)C(=O)O

Tests used:
[1] = Hemolytic activity in human RBC assessed as hemolysis incubated for 2 hrs by spectrophotometer analysis; assay type: toxicity, cell-based, Erythrocyte; conditions: human red blood cells (erythrocytes)
[2] = system: Escherichia coli; assay: Antibacterial activity against Escherichia coli ATCC 25922 incubated for 24 hrs by microtiter plate method; assay type: functional; conditions: Escherichia coli, ATCC 25922, 24 h, read-out: MIC
[3] = system: Pseudomonas aeruginosa; assay: Antibacterial activity against Pseudomonas aeruginosa ATCC 27883 incubated for 24 hrs by microtiter plate method; assay type: functional; conditions: Pseudomonas aeruginosa, ATCC 27883, 24 h, read-out: MIC
[4] = system: Staphylococcus aureus; assay: Antibacterial activity against methicillin resistant Staphylococcus aureus ATCC BAA-1556 incubated for 24 hrs by microtiter plate method; assay type: functional; conditions: Staphylococcus aureus, ATCC BAA-1556, 24 h, read-out: MIC
[5] = system: Staphylococcus aureus; assay: Antibacterial activity against Staphylococcus aureus ATCC 29213 incubated for 24 hrs by microtiter plate method; assay type: functional; conditions: Staphylococcus aureus, ATCC 29213, read-out: MIC

| Structure (SMILES) | HC50 at 2 h [1] | MIC [2] | MIC [3] | MIC [4] | MIC [5] |
| --- | --- | --- | --- | --- | --- |
| NCCCC[C@H](NC(=O)[C@H](CCCCN)NC(=O)[C@H](CCCCN)NC(=O)[C@@H](N)CCCCN)C(=O)N[C@@H](CCCCN)C(=O)N[C@H](C(=O)N[C@H](C(=O)N[C@H](C(=O)O)C(c1ccccc1)c1ccccc1)C(c1ccccc1)c1ccccc1)C(c1ccccc1)c1ccccc1 (H-KKKKK[Dip][Dip][Dip]-OH) | 280 µg/mL | > 100 µg/mL | > 100 µg/mL | 50 µg/mL (≈ 37.6 µM) | 50 µg/mL (≈ 37.6 µM) |
| NCCCC[C@H](NC(=O)[C@H](CCCCN)NC(=O)[C@@H](N)CCCCN)C(=O)N[C@@H](CCCCN)C(=O)N[C@H](C(=O)N[C@H](C(=O)N[C@H](C(=O)O)C(c1ccccc1)c1ccccc1)C(c1ccccc1)c1ccccc1)C(c1ccccc1)c1ccccc1 (H-KKKK[Dip][Dip][Dip]-OH) | 255 µg/mL | > 100 µg/mL | > 100 µg/mL | 25 µg/mL (≈ 20.8 µM) | 25 µg/mL (≈ 20.8 µM) |
| N=C(N)NCCC[C@H](NC(=O)[C@H](CCCNC(=N)N)NC(=O)[C@H](CCCNC(=N)N)NC(=O)[C@H](CCCNC(=N)N)NC(=O)[C@@H](N)CCCNC(=N)N)C(=O)N[C@@H](Cc1ccc2ccccc2c1)C(=O)N[C@@H](Cc1ccc2ccccc2c1)C(=O)N[C@@H](Cc1ccc2ccccc2c1)C(=O)O (H-RRRRR[2Nal][2Nal][2Nal]-OH) | 190 µg/mL | 25 µg/mL (≈ 18 µM) | 25 µg/mL (≈ 18 µM) | 6.2 µg/mL (≈ 4.46 µM) | 6.2 µg/mL (≈ 4.46 µM) |
| N=C(N)NCCC[C@H](NC(=O)[C@H](CCCNC(=N)N)NC(=O)[C@H](CCCNC(=N)N)NC(=O)[C@@H](N)CCCNC(=N)N)C(=O)N[C@@H](CCCNC(=N)N)C(=O)N[C@H](C(=O)N[C@H](C(=O)N[C@H](C(=O)O)C(c1ccccc1)c1ccccc1)C(c1ccccc1)c1ccccc1)C(c1ccccc1)c1ccccc1 (H-RRRRR[Dip][Dip][Dip]-OH) | 165 µg/mL | 25 µg/mL (≈ 17 µM) | 50 µg/mL (≈ 34 µM) | 12.5 µg/mL (≈ 8.51 µM) | 12.5 µg/mL (≈ 8.51 µM) |
| N=C(N)NCCC[C@H](NC(=O)[C@H](CCCNC(=N)N)NC(=O)[C@H](CCCNC(=N)N)NC(=O)[C@@H](N)CCCNC(=N)N)C(=O)N[C@@H](Cc1ccc2ccccc2c1)C(=O)N[C@@H](Cc1ccc2ccccc2c1)C(=O)O (H-RRRR[2Nal][2Nal]-OH) | 180 µg/mL | 50 µg/mL (≈ 48.2 µM) | > 100 µg/mL | 6.2 µg/mL (≈ 5.98 µM) | 6.2 µg/mL (≈ 5.98 µM) |
| N=C(N)NCCC[C@H](NC(=O)[C@H](CCCNC(=N)N)NC(=O)[C@H](CCCNC(=N)N)NC(=O)[C@@H](N)CCCNC(=N)N)C(=O)N[C@@H](Cc1ccc2ccccc2c1)C(=O)N[C@@H](Cc1ccc2ccccc2c1)C(=O)N[C@@H](Cc1ccc2ccccc2c1)C(=O)N[C@@H](Cc1ccc2ccccc2c1)C(=O)O (H-RRRR[2Nal][2Nal][2Nal][2Nal]-OH) | 70 µg/mL | 50 µg/mL (≈ 34.9 µM) | > 100 µg/mL | 12.5 µg/mL (≈ 8.73 µM) | 12.5 µg/mL (≈ 8.73 µM) |
| N=C(N)NCCC[C@H](NC(=O)[C@H](CCCNC(=N)N)NC(=O)[C@H](CCCNC(=N)N)NC(=O)[C@@H](N)CCCNC(=N)N)C(=O)N[C@@H](Cc1ccc(-c2ccccc2)cc1)C(=O)N[C@@H](Cc1ccc(-c2ccccc2)cc1)C(=O)N[C@@H](Cc1ccc(-c2ccccc2)cc1)C(=O)O (H-RRRR[Bip][Bip][Bip]-OH) |  | > 100 µg/mL | 25 µg/mL (≈ 19 µM) | 12.5 µg/mL (≈ 9.52 µM) | 6.2 µg/mL (≈ 4.72 µM) |
| N=C(N)NCCC[C@H](NC(=O)[C@H](CCCNC(=N)N)NC(=O)[C@H](CCCNC(=N)N)NC(=O)[C@@H](N)CCCNC(=N)N)C(=O)N[C@@H](Cc1ccc(-c2ccccc2)cc1)C(=O)N[C@@H](Cc1ccc(-c2ccccc2)cc1)C(=O)N[C@@H](Cc1ccc(-c2ccccc2)cc1)C(=O)N[C@@H](Cc1ccc(-c2ccccc2)cc1)C(=O)O (H-RRRR[Bip][Bip][Bip][Bip]-OH) |  | > 100 µg/mL | > 100 µg/mL | > 100 µg/mL | > 100 µg/mL |
| N=C(N)NCCC[C@H](NC(=O)[C@H](CCCNC(=N)N)NC(=O)[C@@H](N)CCCNC(=N)N)C(=O)N[C@@H](CCCNC(=N)N)C(=O)N[C@H](C(=O)N[C@H](C(=O)O)C(c1ccccc1)c1ccccc1)C(c1ccccc1)c1ccccc1 (H-RRRR[Dip][Dip]-OH) | 185 µg/mL | 50 µg/mL (≈ 45.9 µM) | 50 µg/mL (≈ 45.9 µM) | 12.5 µg/mL (≈ 11.5 µM) | 12.5 µg/mL (≈ 11.5 µM) |
| N=C(N)NCCC[C@H](NC(=O)[C@H](CCCNC(=N)N)NC(=O)[C@@H](N)CCCNC(=N)N)C(=O)N[C@@H](CCCNC(=N)N)C(=O)N[C@H](C(=O)N[C@H](C(=O)N[C@H](C(=O)N[C@H](C(=O)O)C(c1ccccc1)c1ccccc1)C(c1ccccc1)c1ccccc1)C(c1ccccc1)c1ccccc1)C(c1ccccc1)c1ccccc1 (H-RRRR[Dip][Dip][Dip][Dip]-OH) | 75 µg/mL | 50 µg/mL (≈ 32.6 µM) | 50 µg/mL (≈ 32.6 µM) | 12.5 µg/mL (≈ 8.14 µM) | 6.2 µg/mL (≈ 4.04 µM) |
| N=C(N)NCCC[C@H](NC(=O)[C@H](CCCNC(=N)N)NC(=O)[C@@H](N)CCCNC(=N)N)C(=O)N[C@@H](Cc1ccc2ccccc2c1)C(=O)N[C@@H](Cc1ccc2ccccc2c1)C(=O)N[C@@H](Cc1ccc2ccccc2c1)C(=O)O (H-RRR[2Nal][2Nal][2Nal]-OH) | 105 µg/mL | 12.5 µg/mL (≈ 11.6 µM) | 25 µg/mL (≈ 23.2 µM) | 6.2 µg/mL (≈ 5.75 µM) | 6.2 µg/mL (≈ 5.75 µM) |
